Data on four substances can be found in article PMC4108065, “Inflammation and pancreatic cancer: molecular and functional interactions between S100A8, S100A9, NT-S100A8 and TGFβ1” (Cell Communication and Signaling : CCS, 2014).

In one test the test system is Panc1. Kind of test: XTT cell viability assay, Panc1. Type of test: cell-based, human. The conditions noted are these: 48 hours, TGFβ1 0.02 ng/ml, NT-S100A8 50 nM, S100A8 10 nM, S100A9 10 nM, alone or combined, at least three independent experiments in quadruplicate. How it is done:
BxPC3, Capan1, MiaPaCa2, Panc1 and BxPC3-SMAD4+ cells were seeded (2000 cells per well) in 96-well cell culture plates and cultured in complete media for 24 hours. Media were then replaced with fresh cell culture media in absence (control) or in presence of TGFβ1 (0.02 ng/ml) and NT-S100A8 (50 nM), alone or combined or in absence (control) or in presence of TGFβ1 (0.02 ng/ml), S100A8 (10 nM) and S100A9 (10 nM) alone or combined. Cell growth was assessed after 48 hours using the XTT cell viability test (Roche, Milano, Italy). At least three independent experiements, each made in quadruplicate, were run. The results were expressed as percentage with respect to the median Abs450nm of control cells run in the same experimental set.
A general note: Tetrazolium dyes change colour on reduction, which living cells bring about.

A further test concerns BxPC3 [Ca2+]i. Kind of test: Intracellular calcium, fluo-4 epifluorescence, BxPC3. The class given is cell-based, human. Particulars: for alterations in [Ca2+]i: BxPC3, single treatment, monitored for 500 seconds, 0.02 ng/ml TGFβ1, 10 nM S100A8, 10 nM S100A9. How it is done:
(§1) BxPC3 and MiaPaCa2 cells, seeded (80 × 10^3 cells) on coverslips that had been inserted within each well of six well culture plates, were kept in their respective complete media for 24 hours. Coverslips were then incubated for 10 min at 37°C with 3 μM fluo-4 AM (Invitrogen S.R.L.) in an imaging buffer containing 137 mM NaCl, 5 mM KCl, 1.2 mM MgCl2, 0.44 mM KH2PO4, 4.2 mM NaHCO3, 5 mM glucose, and 20 mM HEPES pH 7.4. The cells were carefully washed with the imaging buffer after its removal. Calcium oscillations were then analyzed by means of an inverted epifluorescence microscope equipped with a top stage incubator (Tokai Hit INU-F1, Tokai Hit, Shizuoka-Ken, Japan) in order to keep cells in the optimal culturing environment. As an illumination source, we used a mercury arc discharge lamp and selected excitation and emission wavelengths with an FITC filter cube (EX 465–495 DM505 EM 515–555 nm). Use was made of an 60X1.45NA objective (Nikon Instruments S.P.A., Firenze, Italy) and, in order to minimize phototoxicity and photobleaching, a back-thinned electron multiplied CCD camera C9100-13 Imagem (Hamamatsu Photonics Italia S.R.L., Milano, Italy). After the first minute, required to achieve optimal culture conditions, intracellular fluorescence was continuously monitored (3 frames/sec) for 12 min. In all experiments, […], the cells were maintained in imaging buffer for the first 2 minutes, after which they were stimulated with 10 nM S100A8, 10 nM S100A9 and 50 nM NT-S100A8, alone or in combination with 0.02 ng/ml TGFβ1. For all stimuli, additions were made directly to the microscope chamber without interrupting the recording. The fluorescence signal was quantified by measuring the mean pixel value of a manually selected cellular area for each frame of the image stack using the HCimage system (Hamamatsu Photonics Italia S.R.L.). For all the experimental conditions, at least 3 independents sets of experiments were performed.
A general note: A change in cytosolic calcium serves as a functional read-out for many receptors and channels.

The next test relates to MiaPaCa2 [Ca2+]i. The test is described as follows: Intracellular calcium, fluo-4 epifluorescence, MiaPaCa2. The class given is cell-based, human. The conditions noted are these: for [Ca2+]i variation per minute per cell: MiaPaCa2, 200 to 480 second interval, vs control cells, One-Way ANOVA, Bonferroni; for effect on the [Ca2+]i decrement induced by TGFβ1: MiaPaCa2, combined with 0.02 ng/ml TGFβ1, 200 to 480 second interval. The procedure:
as §1

A further test concerns the target T1, TGFβ1 (Homo sapiens, UniProt P01137).
T1 construct: purchased ProSpec-Tany TechnoGene
Kind of test: Molecular interactions by MALDI-TOF/MS and co-immunoprecipitation. The conditions noted are these: for co-immunoprecipitation with TGFβ1: 1.6 μM equimolar with CaCl2, 37°C overnight, IP anti-S100A8 or anti-S100A9, WB TGFβ1; for homo-oligomer formation: 11.3 μM with Ca2+; for homo-oligomer formation / hetero-dimer formation with TGFβ1: overnight, MALDI-TOF/MS; for hetero-dimer formation with TGFβ1: 1:1 molar ratio (11.3 μM) with Ca2+. The class given is binding. The procedure: Co-immunoprecipitation experiments were performed using protein G-Sepharose (GE Healthcare Technologies). TGFβ1 (1.6 μM) was incubated in equimolar concentrations with S100A8 or S100A9 at 37°C overnight in the presence of equimolar CaCl2. The mixtures were then incubated for 2 h with anti-S100A8 polyclonal or anti-S100A9 monoclonal antibodies (Santa Cruz Biotechnology) preadsorbed to protein G. Immunoprecipitates, washed three times in 10 mM Tris HCl containing 40 mM NaCl, pH 7.5, were boiled in an SDS-PAGE sample buffer before electrophoresis on 4–12% NuPAGE®NovexBis-Tris SDS–PAGE gels. After protein transfer, nitrocellulose membranes were blotted with anti-TGFβ1 antibody (Cell Signaling Technology).
S100A8, S100A9 and TGFβ1 and calcium ions (CaCl2) were mixed at an equimolar concentration (11.3 μM) in an aqueous solution. Each mixture was incubated overnight at 37°C prior to MALDI-TOF/MS analysis. S100A8, S100A9 and TGFβ1 mixtures were diluted 1/10 in 50 μL of 0.1% TFA aqueous solution, after which 5 microliters of each dilution were added to 5 μl of Sinapinic acid (SA); 1 μl of the resulting mixture was deposited in duplicate on the steel sample holder and allowed to dry. External mass calibration (Protein Calibration Standard II, BrukerDaltonics) was based on monoisotopic values of [M + H] + of Trypsinogen, Protein A, Albumin-Bovine (BSA), at m/z 23982, 44613, 66500, respectively. MALDI-TOF/MS measurements were performed using an Ultraflex II MALDI-TOF instrument (BrukerDaltonics), operating in linear positive ion mode. Ions were formed using a pulsed UV laser (λ = 337 nm) beam. The instrumental conditions were: IS1 = 25 kV; IS2 = 23.35 kV; delay time = 70 nsec. All chemicals and solvents were purchased from Sigma-Aldrich (Sigma Aldrich). One spectrum was collected for each sample, an average of 1,000 laser shots being obtained from the respective two replicate spots.

T1 sequence (P01137 279-390 limits assumed): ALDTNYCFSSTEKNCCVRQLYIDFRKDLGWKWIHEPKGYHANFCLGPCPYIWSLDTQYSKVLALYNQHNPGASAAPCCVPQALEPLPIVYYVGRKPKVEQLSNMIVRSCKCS

In the case of “S100A8: inflammatory calcium binding protein S100A8 (ProSpec-Tany TechnoGene)”, in the test on Panc1, the “Panc1 % to Control Mean± SEM” value is listed as 93.16 ± 3.65 % to Control. In addition, the “alterations in [Ca2+]i” value with BxPC3 [Ca2+]i was “did not determine evident alterations in [Ca^2+]i”. Also, in the test with MiaPaCa2 [Ca2+]i, the “[Ca2+]i variation per minute per cell” value is “significant decrement of [Ca^2+]i” and the “effect on the [Ca2+]i decrement induced by TGFβ1” value is listed as “partly counteracted”. Moreover, in the test with TGFβ1, the “co-immunoprecipitation with TGFβ1” value was “TGFβ1 was detected”; the homo-oligomer formation entry is on record as “formed homo-dimers”; the “hetero-dimer formation with TGFβ1” value is on record as “formed hetero-dimers not only between themselves, but also with TGFβ1”.

For “TGFβ1: transforming growth factor beta 1 (ProSpec-Tany TechnoGene)”, the “Panc1 % to Control Mean± SEM” value in the test on Panc1 is recorded as 88.31 ± 3.68 % to Control. The “alterations in [Ca2+]i” value with BxPC3 [Ca2+]i was “did not determine evident alterations in [Ca^2+]i”. In addition, the “[Ca2+]i variation per minute per cell” value with MiaPaCa2 [Ca2+]i is “significant decrement of [Ca^2+]i”. In the test with TGFβ1, the homo-oligomer formation entry is “formed homo-dimers and homo-trimers”.

“S100A9: inflammatory calcium binding protein S100A9, S100A8 binding partner”: the “Panc1 % to Control Mean± SEM” value in the test with Panc1 was 96.72± 4.43 % to Control. In the test on BxPC3 [Ca2+]i, the “alterations in [Ca2+]i” value is “did not determine evident alterations in [Ca^2+]i”. In addition, the “effect on the [Ca2+]i decrement induced by TGFβ1” value with MiaPaCa2 [Ca2+]i is reported as “completely reverted”. Moreover, in the test with TGFβ1, the “co-immunoprecipitation with TGFβ1” value is “TGFβ1 was detected”; the homo-oligomer formation result was “formed homo-dimers and homo-trimers”; the “hetero-dimer formation with TGFβ1” value is given as “formed hetero-dimers not only between themselves, but also with TGFβ1”.

For the substance “NT-S100A8: 14 N-terminal aminoacid peptide of S100A8, isolated from PDAC tissues (MLTELEKALNSIID; UniProt P05109 1-14, looked up, fragment)”, in the test with BxPC3 [Ca2+]i (BxPC3, combination with 0.02 ng/ml TGFβ1), the “effect of TGFβ1 on the induced [Ca2+]i oscillations” value is “synergized and accelerated by TGFβ1”. In addition, the “[Ca2+]i variation per minute per cell” value in the test with MiaPaCa2 [Ca2+]i is “significant decrement of [Ca^2+]i”.
